This is an account of results in PMC4764201, “High Throughput Screen for Escherichia coli Twin Arginine Translocation (Tat) Inhibitors” (PLoS ONE, 2016).

The structures appear in SMILES notation.

The subject of one assay is electrical field gradient (Δψ) across IMVs. The assay is described as follows: Δψ assay (oxonol VI fluorescence with IMVs). Format: biochemical, Escherichia coli.
Settings: not given
The method, then:
Hit compounds surviving the in vitro Tat transport assay screens could be general Δψ inhibitors (ionophores), as both NADH and ATP generate the Δψ necessary for Tat transport. Since our current assay to measure Δψ requires ~20 times more test compound than the Tat transport assays, we reserved this assay for last. The presence of a Δψ was determined by measuring oxonol VI fluorescence. For all 8 hit compounds that survived initial secondary screening, we tested their dose dependent effect on the Δψ, on NADH-dependent in vitro Tat transport efficiency, and on the fluorescence signal recovered from our primary HTS assay (live cell assay). […] Out of 22 independent assays by three different people, compound 18^NIH inhibited Tat transport 12 times. The conflicting results seem more likely to arise from differences in IMV preparations rather than decomposition of or impurities in the samples of compound 18^NIH.
Isolation of inverted membrane vesicles (IMVs), Western blot analyses and purification of pre-SufI-IAC were performed as described previously. Western blots were performed using rabbit anti-mCherry antibodies (1:10,000 dilution) in the presence of 0.1% Triton X-100 and 0.1% Tween 20. The pre-SufI-IAC protein was labeled with Atto565 maleimide, and the resultant fluorescent protein, pre-SufI-IAC^Atto565, was used as a substrate for the in vitro Tat transport assays (A280 = 5.0), as described previously. The presence of a Δψ was determined by measuring oxonol VI fluorescence in presence of Tat^+ IMVs (A280 = 0.5), as described previously, except that the translocation buffer lacked BSA. Steady-state fluorescence spectra and fluorescence intensities of whole cells producing mCherry proteins were determined with an SLM-8100 spectrofluorometer.
Supplementary file pone.0149659.s003.tiff: S3 Fig IC50's for Hit Compound 181^JS. (A) The total cellular mCherry fluorescence (live cell assay; n = 1), (B) the in vitro NADH-dependent Tat transport efficiency of pre-SufI (n = 1), and (C) the maximum transmembrane electrical potential gradient (n = 1) were measured for a range of concentrations of compound 181^JS (S2E Fig). (D) SDS-PAGE gel showing in-gel fluorescence data used in (B). For (A), cells expressing spTorA-mCherry-SsrA were grown under Tat^++ conditions in a 384-well plate in the presence of 0, 0.08, 0.15, 0.3, 0.63, 1.25, 2.5, 5, 10, 20, or 40 μM compound 181^JS, as described for the HTS assay (see Methods). For (B) and (C), IMVs were incubated with the same concentrations of compound 181^JS prior to initiation of Tat transport and Δψ generation by the addition of NADH, as described previously. The red curves are best-fits using y = d + (100-d)/(1+(x/IC50)^b), where b is a slope factor and d is the high concentration asymptote. (TIFF) Click here for additional data file.
`Oc1cc(Cl)ccc1Oc1ccc(Cl)cc1Cl` [Compound 18^NIH, 5-Chloro-2-(2,4-dichlorophenoxy)phenol]: the “effect on the Δψ across IMVs” value was “did not collapse the Δψ”.

Staying with this assay, now noted: electrical field gradient; IMVs A280 = 0.5; NADH.
Take `O=[N+]([O-])c1ccc(O)c(-c2cccs2)c1` [Compound 202, 4-nitro-2-thiophen-2-ylphenol]: the IC50 turned out to be 3000 nM.

For `N#CC(C#N)=NNc1ccccc1Br` [Compound 1, [(2-bromophenyl)hydrazono]malononitrile], 1000 nM corresponded to half-maximal inhibition (IC50).

`Fc1nc(F)c(F)c(NNC(=S)Nc2cccc(C(F)(F)F)c2)c1F` [Compound 111, 1-[(2,3,5,6-tetrafluoropyridin-4-yl)amino]-3-[(3-trifluoromethyl)phenyl]thiourea] yielded an IC50 of 100 nM.

`Oc1cc(Cl)ccc1Oc1ccc(Cl)cc1Cl` [Compound 18^NIH, 5-Chloro-2-(2,4-dichlorophenoxy)phenol] showed an IC50 of over 100000 nM.

Compound `O=[N+]([O-])c1cc([N+](=O)[O-])c2ccccc2c1Cl` [Compound 51, 1-chloro-2,4-dinitronaphthalene] displayed an IC50 of 8000 nM.

Compound `FC(F)(F)c1cccc(-c2cccc3cnccc23)c1` [Compound 140, 5-[3-(trifluoromethyl)phenyl]isoquinoline] had an IC50 of 1000 nM.

`N#CC1c2ccccc2-n2nncc2CN1Cc1cc(Cl)cc(Cl)c1` (stereo not drawn) [21^NIH, 5-[(3,5-dichlorophenyl)methyl]-4,6-dihydrotriazolo[1,5-a][1, 4]benzodiazepine-6-carbonitrile] gave an IC50 of 4000 nM.

`O=C(Nc1cccc(C(F)(F)F)c1)Nc1ncc([N+](=O)[O-])s1` [Compound 181^JS, 1-(5-nitro-1,3-thiazol-2-yl)-3-[3-(trifluoromethyl)phenyl]urea]: the IC50 worked out at 400 nM.

A word on the IC50: it is the point on the concentration scale where inhibition reaches its midpoint.
